Data published in patent US20210393664A1, “THERAPEUTIC METHODS AND COMPOSITIONS FOR TREATING ACUTE MYELOID LEUKEMIA USING DEVIMISTAT” (Rafael Pharmaceuticals, Inc., priority 2018, published 2021).

Columns and labels:
[1] = Animal study NCL-049: extra air in the dead space of IV catheters during administration; format: in vivo; details: accidental co-administration of extra air in the dead space of IV catheters; animal studies (Study NCL-049)
Procedure: (§1) Diluted CPI-613® (devimistat) drug product must be administered over 2 hours, concurrently with D5W at the rate of 125 mL/hour, by IV infusion via a central line catheter, using an infusion pump, that is free flowing and free of air in the dead space of the IV catheter. This is done to minimize vascular irritation, inflammation and acute toxicity of CPI-613® (devimistat) (Study NCL-049). […] To avoid local reactions at and around the site of administration, CPI-613® (devimistat) must be administered via a central IV catheter.

[2] = Adverse events by relatedness to devimistat; format: in vivo, human; details: patients
Text: An AE can therefore be any unfavorable sign (including an abnormal laboratory finding), symptom, or disease temporarily associated with the study treatment, whether or not related to the investigational product.
Probably Related—A clinical event follows a reasonable temporal sequence from the time of Investigational Product (CPI-613®) administration. The toxicity cannot be reasonably explained by other factors such as the subjects clinical state or concurrent medical condition, or concurrent medication(s).
Possibly Related—A clinical event follows a reasonable temporal sequence from the time of active Investigational Product (CPI-613®) administration, but could also have been produced by other factors such as the subjects clinical state, or concurrent medical condition, or concurrent medication(s).

[3] = Leaching of DEHP from IV infusion sets and IV bags; format: physicochemical; details: DEHP-containing IV infusion sets and IV bags
[4] = design: species or system animal; details: in vivo, iv
Procedure: as §1

## O=C(O)CCCCC(CCSCc1ccccc1)SCc1ccccc1 (stereo not shown) [devimistat, 6,8-bis-benzylthio-octanoic acid]
[1]
  acute toxicity: potential to induce acute toxicity
[2]
  adverse events probably related: Nausea, Vomiting, Diarrhea, Increased creatinine, Neutropenia, Hyperkalemia, Hypoalbuminemia, Hypophosphatemia, Hyponatremia, Fatigue, Platelet count decreased, Renal failure (reversible), Glomerular filtration rate (decreased), Hemoglobin (anemia)
[3]
  leaching of DEHP: can cause leaching of DEHP from IV infusion sets and IV bags
[4]
  local inflammation: significant local inflammation
